Measured values reported in patent US5053006A, “Method for the permanent occlusion of arteries” (priority 1990, dated 1991).

Columns and labels:
[1] = compared with rose bengal; cited from earlier work
middle cerebral artery = assay: Erythrosin B photothrombotic occlusion of middle cerebral artery; assay type: in vivo, rat
[2] = Absorption / excitation of the dye in tissue; assay type: physicochemical; details: endothelial tissue
Excerpt: Examples of lasers that can be used to provide the light beam include the He-Ne laser, the argon ion laser and the argon-pumped dye laser. The 543.5 nm He-Ne laser, for example, can excite rose bengal with an efficiency of 58% of the maximum. (The wavelength at which excitation efficiency for rose bengal is maximal in tissue occurs at 562 nm.) Because the maximum theoretical power output is only 4 or 5 milliwatts, the 543.5 nm He-Ne laser is not used in clinical applications at this time. However, this laser is expected to be particularly useful in permanently occluding relatively low-flow arteries, smaller than about 200 μm, such as those in the choroid of the eye.
The argon ion laser is the most common clinical laser used at this time. Although the commonly used argon 514.5 nm line is only 36% efficient with respect to the maximum of rose bengal absorption, this laser is much more powerful (by at least a factor of 1000) and versatile than the He-Ne laser.
The absorption maximum of erythrosin B in endothelial tissue is at 536 nm, which is closer than that of rose bengal to the standard 514.5 nm wavelength of the argon ion laser.

[3] = in vivo; cited from earlier work

absorption maximum in endothelial tissue [2] [nm]	Molecule	quantum efficiency for singlet oxygen production [1]	photothrombotic efficiency in vivo (middle cerebral artery; 514.5 nm argon line, vs rose bengal)	photothrombotic occlusion of rat MCA (middle cerebral artery; i.v., argon ion laser, 680 μM blood concentration)	half life [3]
536	O.O=C([O-])c1ccccc1-c1c2cc(I)c(=O)c(I)c-2oc2c(I)c([O-])c(I)cc12.[Na+].[Na+] [erythrosin B]	slightly less	comparable photothrombotic efficiency	photothrombotically occlude the rat middle cerebral artery in the same fashion as rose bengal	
	dihematoporphyrin ether [dihematoporphyrin ether derivative]				so long
